How the values were obtained:
LRRK2 WT [1] = biological target: T1, LRRK2 WT (Homo sapiens, UniProt Q5S007); experiment: In vitro kinase assay: LRRK2 autophosphorylation; type: biochemical; details: for effect on WT LRRK2 autophosphorylation: dose-response; for IC50: Table 2, mean of three experiments; for LRRK2 autophosphorylation Average ± SEM: compound 16 μM, phosphorylation normalized to absence of compound, mean ± S.E.M. of three experiments; for effect on LRRK2 autophosphorylation: screen at 16 μM
LRRK2 WT [2] = biological target: T1, LRRK2 WT; experiment: In vitro kinase assay: LRRK2-mediated MBP phosphorylation; type: biochemical; details: for effect on WT LRRK2 MBP phosphorylation: dose-response; for IC50: mean of three experiments; for MBP phosphorylation Average ± SEM: compound 16 μM, 30° C., 15 min, normalized to absence of compound, mean ± S.E.M. of three experiments; for effect on LRRK2-mediated phosphorylation of MBP: screen at 16 μM
LRRK2 G2019S [3] = biological target: T2, LRRK2 G2019S (Homo sapiens, UniProt Q5S007, G2019S); experiment: In vitro kinase assay: G2019S LRRK2 autophosphorylation; type: biochemical; details: for effect on G2019S LRRK2 autophosphorylation: dose-response; for IC50: Table 2, mean of three experiments
Experimental: (§1) Transfection was performed by using Fugene HD reagent (Roche Applied Science) according to the manufacturer's instruction. For purification of recombinant LRRK1 and LRRK2 proteins, ACTA Purifier (GE Healthcare) FPLC system was used.
(§2) Resulting lysates were rotated at 4° C. for 30 min followed by centrifugation at 20,000×g for 15 min. The supernatants were injected into a GSTrap FF column pre-equilibrated with PBS at 0.5. mL/min flow after filtration using a 0.2 μm syringe filter (Corning). The bound proteins were eluted with buffer containing 10 mM GSH (Sigma), 150 mM NaCl, and 50 mM Tris-HCl (pH 8.0).
(§3) The in vitro kinase assay was performed as previously described. […] Recombinant LRRK2 and MBP or CST-4E-BP1 were combined before the kinase reaction. LRRK2 autophosphorylation is LRRK2 itself phosphorylation and MBP or GST-4E-BP1 phosphorylation is induced by LRRK2. After the kinase reaction, combined LRRK2 and MBP or GST-4E-BP1 were loaded on SDSPAGE and phosphorylated LRRK2 and MBP or GST-4E-BP1 could be detected separately an a single gel. Recombinant proteins and inhibitors were incubated at 30° C. in kinase assay buffer containing 20 mM Hepes (pH 7.4), 5 mM EGTA, and 20 mM β-glycerol phosphate. 0.5 μg MBP (Upstate) or 0.5 μg GST-4B-BP1, 50 μM ATP (Sigma), 20 mM MgCl2, and 1 μCi [γ-32P] ATP (PerkinElmer) was added after 5 min. The reaction was performed at 30° C. to reduce non-specific 32P incorporation for 15 min and terminated by the addition of 5×Laemmili sample buffer. […] Gels were stained by coomassie brilliant blue after fixation with 10% acetic acid and 40% methanol and then exposed to a Phosphoimager. Data were analyzed by ImageQuant 6.0 software.
(§4) To calculate the IC50 value, a dose-response curve was constructed and non-linear regression analysis using the equation for a sigmoid plot.

LRRK2 G2019S [4] = biological target: T2, LRRK2 G2019S; experiment: In vitro kinase assay: G2019S LRRK2-mediated MBP phosphorylation; type: biochemical; details: for effect on G2019S LRRK2 MBP phosphorylation: dose-response; for IC50: Table 2, mean of three experiments
Experimental: as §1, §2, §3, §4

LRRK1 WT [5] = biological target: T3, LRRK1 WT (Homo sapiens, UniProt Q38SD2); experiment: In vitro kinase assay: LRRK1 autophosphorylation; type: biochemical; details: for IC50: Table 3, mean of three experiments
LRRK1 WT [6] = biological target: T3, LRRK1 WT; experiment: In vitro kinase assay: LRRK1-mediated MBP phosphorylation; type: biochemical; details: for IC50: Table 3, mean of three experiments
[7] = tested on: rat primary cortical neuronal cultures transfected with G2019S LRRK2; experiment: LRRK2-induced neuronal toxicity in primary cortical neuronal cultures (neurite shortening, TUNEL); type: cell-based; details: 0.5 μM
Experimental: Representative photomicrographs of each experimental group. LRRK2 and eGFP constructs were combined in a molar ratio of 10:1, respectively, and transfected by using of Lipofectamine 2000 (Invitrogen) at DIV (day in vitro) 14 into rat primary cortical neuronal cultures. Compounds (0.5 μM) were administrated at the time of transfection and continued until toxicity assessments. On DIV 16, images were collected on a Zeiss Automatic stage with Axiovision 6.0. (a) Low magnified photomicrographs; (b and c) High magnified photomicrographs. Scale bar=50 μm (a) and 10 μm (b and c);
Primary cortical neuronal cultures were prepared from gestational day 15 fetal rats as previously described. Gonzalez-Zulueta, M., et al. Manganese superoxide dismutase protects nNOS neurons from NMDA and nitric oxide-mediated neurotoxicity. J Neurosci 18, 2040-2055 (1998). All procedures used in this study were approved by the Johns Hopkins Medical Institute Animal Care Committee. Cell viability assays and DNA fragmentation (TUNEL assay) were performed as previously described. Smith, W. W., et al. Kinase activity of mutant LRRK2 mediates neuronal toxicity. Nat Neurosci 9, 1231-1233 (2006); West, A. B., et al. Parkinson's disease-associated mutations in LRRK2 link enhanced GTP-binding and kinase activities to neuronal toxicity. Hum Mol Genet 16, 223-232 (2007). The cortex was dissected, incubated for 15 min in 0.027% trypsin, and then transferred to modified Eagle's medium (MEM)/10% horse serum/10% fetal bovine serum/2 mM glutamine followed by trituration. Dissociated cells were plated at a density of 3-4×10^5 cells per well in polyornithine-coated plates. After 4 days the cells were treated with 10 μg of 5-fluoro-2′-deoxyuridine to prevent proliferation of nonneuronal cells. Cells were maintained in MEM/5% horse serum/2 mM glutamine in 8% CO2 incubator. The medium was changed twice weekly. For assessment of LRRK2-mediated neuronal injury, LRRK2 and eGFP constructs were combined in a molar ratio of 10:1, respectively, and transfected into neurons with Lipofectamine 2000 (Invitrogen) at DIV (day in vitro) 14. On DIV 16, images were collected on a Zeiss Automatic stage with Axiovision 6.0. Viable neurons were defined as having at least one smooth extension (neurite) with twice the length of the cell body. The percentage of eGFP-positive injured neurons in each experimental group relative to those neurons transfected with eGFP was calculated.

T2 sequence (Q5S007 whole entry G2019S): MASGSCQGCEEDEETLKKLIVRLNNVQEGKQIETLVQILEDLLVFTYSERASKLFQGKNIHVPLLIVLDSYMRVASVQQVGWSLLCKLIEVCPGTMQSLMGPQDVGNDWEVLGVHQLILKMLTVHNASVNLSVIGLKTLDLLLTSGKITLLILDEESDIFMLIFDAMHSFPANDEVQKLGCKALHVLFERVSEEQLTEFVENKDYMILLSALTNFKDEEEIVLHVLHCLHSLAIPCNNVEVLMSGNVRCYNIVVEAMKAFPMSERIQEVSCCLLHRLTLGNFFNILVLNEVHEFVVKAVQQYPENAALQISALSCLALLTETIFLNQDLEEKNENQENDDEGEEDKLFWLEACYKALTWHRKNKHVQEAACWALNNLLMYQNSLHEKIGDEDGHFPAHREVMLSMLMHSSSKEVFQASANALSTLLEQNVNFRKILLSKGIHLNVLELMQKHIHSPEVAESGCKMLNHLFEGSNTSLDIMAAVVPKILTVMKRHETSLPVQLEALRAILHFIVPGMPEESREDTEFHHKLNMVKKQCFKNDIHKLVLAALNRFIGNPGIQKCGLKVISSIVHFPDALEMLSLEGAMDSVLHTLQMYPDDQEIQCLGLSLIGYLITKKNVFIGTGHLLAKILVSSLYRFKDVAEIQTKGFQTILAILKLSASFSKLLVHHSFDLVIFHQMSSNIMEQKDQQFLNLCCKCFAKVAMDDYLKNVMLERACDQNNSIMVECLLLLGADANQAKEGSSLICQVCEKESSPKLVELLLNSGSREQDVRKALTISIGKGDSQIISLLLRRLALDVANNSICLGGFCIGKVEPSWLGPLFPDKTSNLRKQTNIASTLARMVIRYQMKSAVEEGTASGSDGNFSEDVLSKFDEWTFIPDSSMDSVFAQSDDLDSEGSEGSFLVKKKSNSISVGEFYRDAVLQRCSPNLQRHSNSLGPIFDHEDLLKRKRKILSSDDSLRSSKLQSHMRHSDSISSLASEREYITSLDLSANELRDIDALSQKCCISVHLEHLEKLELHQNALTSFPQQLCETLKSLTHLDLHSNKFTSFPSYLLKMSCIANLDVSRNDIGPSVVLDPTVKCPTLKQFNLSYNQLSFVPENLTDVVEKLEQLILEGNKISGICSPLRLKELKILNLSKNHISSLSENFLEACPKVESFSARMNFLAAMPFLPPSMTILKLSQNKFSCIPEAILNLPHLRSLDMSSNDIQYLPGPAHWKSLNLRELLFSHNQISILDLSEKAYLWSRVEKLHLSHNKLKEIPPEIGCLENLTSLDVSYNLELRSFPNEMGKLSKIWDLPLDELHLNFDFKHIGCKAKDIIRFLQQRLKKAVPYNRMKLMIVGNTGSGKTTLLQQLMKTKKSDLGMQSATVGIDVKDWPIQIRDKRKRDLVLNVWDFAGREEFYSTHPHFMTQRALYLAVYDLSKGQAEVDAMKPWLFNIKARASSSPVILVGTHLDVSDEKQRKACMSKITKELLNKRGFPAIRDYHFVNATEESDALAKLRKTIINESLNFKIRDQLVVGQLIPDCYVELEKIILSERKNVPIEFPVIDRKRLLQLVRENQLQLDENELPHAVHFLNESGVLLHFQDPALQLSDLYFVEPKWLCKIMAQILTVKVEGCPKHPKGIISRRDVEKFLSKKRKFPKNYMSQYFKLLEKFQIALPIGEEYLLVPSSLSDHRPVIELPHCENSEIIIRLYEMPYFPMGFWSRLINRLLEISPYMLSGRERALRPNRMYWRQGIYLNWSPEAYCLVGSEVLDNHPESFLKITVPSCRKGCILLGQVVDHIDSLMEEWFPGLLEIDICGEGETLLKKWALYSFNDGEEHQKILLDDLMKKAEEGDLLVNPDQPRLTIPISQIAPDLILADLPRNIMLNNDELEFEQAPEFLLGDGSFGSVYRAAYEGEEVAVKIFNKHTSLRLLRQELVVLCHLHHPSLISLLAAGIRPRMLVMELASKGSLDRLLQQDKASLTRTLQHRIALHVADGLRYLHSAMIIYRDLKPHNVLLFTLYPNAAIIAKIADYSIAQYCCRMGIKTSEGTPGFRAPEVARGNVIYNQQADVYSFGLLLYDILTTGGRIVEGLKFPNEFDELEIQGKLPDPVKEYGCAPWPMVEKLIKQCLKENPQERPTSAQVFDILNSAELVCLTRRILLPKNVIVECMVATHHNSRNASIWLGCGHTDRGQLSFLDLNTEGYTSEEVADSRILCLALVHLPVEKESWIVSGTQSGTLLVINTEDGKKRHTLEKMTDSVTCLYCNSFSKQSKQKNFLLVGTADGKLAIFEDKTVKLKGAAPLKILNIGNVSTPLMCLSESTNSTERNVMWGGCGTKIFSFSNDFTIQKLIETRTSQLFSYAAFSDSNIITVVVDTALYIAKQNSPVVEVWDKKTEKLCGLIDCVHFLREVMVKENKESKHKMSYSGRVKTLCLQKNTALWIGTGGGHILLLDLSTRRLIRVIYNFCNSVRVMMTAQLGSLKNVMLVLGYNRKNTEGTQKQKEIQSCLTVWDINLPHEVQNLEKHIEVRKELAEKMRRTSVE
T3 sequence (Q38SD2 whole entry): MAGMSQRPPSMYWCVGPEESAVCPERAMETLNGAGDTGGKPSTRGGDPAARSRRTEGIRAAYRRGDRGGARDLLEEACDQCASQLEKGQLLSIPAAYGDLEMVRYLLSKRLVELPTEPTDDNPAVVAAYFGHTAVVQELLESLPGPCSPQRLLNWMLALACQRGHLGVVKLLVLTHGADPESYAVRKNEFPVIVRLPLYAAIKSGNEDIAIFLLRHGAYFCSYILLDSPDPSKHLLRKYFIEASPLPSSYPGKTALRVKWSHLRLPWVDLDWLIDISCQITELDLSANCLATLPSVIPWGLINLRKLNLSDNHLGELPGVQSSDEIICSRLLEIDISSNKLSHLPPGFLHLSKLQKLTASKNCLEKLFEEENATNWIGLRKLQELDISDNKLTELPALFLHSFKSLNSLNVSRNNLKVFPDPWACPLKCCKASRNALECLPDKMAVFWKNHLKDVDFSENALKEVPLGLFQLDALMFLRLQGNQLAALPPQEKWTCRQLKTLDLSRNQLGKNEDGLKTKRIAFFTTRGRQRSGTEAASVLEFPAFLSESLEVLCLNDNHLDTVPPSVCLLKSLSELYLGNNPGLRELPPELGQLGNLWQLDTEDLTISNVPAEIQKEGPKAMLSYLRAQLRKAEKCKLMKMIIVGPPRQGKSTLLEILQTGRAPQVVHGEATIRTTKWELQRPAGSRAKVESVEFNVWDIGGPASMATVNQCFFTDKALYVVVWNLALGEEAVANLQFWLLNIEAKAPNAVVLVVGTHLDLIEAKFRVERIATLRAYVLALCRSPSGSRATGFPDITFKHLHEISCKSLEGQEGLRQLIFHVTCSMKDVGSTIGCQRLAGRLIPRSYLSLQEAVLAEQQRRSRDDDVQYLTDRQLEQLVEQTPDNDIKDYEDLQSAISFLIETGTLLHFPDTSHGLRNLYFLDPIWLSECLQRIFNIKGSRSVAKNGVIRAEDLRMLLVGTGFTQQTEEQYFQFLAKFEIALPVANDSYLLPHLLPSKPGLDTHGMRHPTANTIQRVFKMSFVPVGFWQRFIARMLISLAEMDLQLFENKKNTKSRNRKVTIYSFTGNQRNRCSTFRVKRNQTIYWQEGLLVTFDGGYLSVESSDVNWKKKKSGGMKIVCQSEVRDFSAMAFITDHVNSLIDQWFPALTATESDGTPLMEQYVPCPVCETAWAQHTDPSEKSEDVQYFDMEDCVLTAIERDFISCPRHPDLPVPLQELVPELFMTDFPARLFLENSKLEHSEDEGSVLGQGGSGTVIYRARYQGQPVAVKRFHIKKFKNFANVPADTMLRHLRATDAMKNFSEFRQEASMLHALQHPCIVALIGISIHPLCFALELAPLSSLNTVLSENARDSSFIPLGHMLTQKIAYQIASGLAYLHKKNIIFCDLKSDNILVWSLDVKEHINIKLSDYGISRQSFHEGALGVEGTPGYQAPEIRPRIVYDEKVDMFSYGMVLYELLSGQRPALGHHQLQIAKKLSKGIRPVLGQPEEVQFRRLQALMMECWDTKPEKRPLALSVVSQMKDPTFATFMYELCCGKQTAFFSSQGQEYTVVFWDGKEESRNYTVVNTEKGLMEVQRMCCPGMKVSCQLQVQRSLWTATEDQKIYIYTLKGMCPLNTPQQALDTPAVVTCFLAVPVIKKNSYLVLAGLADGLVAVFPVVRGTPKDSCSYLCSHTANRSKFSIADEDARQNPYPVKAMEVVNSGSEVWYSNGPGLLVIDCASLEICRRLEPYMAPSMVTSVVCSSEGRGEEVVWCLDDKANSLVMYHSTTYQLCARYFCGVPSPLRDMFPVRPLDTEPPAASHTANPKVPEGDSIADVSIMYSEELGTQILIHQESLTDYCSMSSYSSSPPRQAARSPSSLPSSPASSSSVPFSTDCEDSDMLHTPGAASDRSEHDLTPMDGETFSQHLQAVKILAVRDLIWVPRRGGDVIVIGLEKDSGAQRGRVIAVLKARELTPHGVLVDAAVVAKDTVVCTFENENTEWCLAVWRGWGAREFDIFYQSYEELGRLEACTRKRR
T1 sequence (Q5S007 whole entry): as the sequence (Q5S007 whole entry G2019S) above, with S2019G counted along it

| SMILES | effect on WT LRRK2 autophosphorylation (LRRK2 WT [1]) | effect on WT LRRK2 MBP phosphorylation (LRRK2 WT [2]) | effect on G2019S LRRK2 autophosphorylation (LRRK2 G2019S [3]) | effect on G2019S LRRK2 MBP phosphorylation (LRRK2 G2019S [4]) | effect on LRRK1 autophosphorylation (LRRK1 WT [5]) | effect on LRRK1 MBP phosphorylation (LRRK1 WT [6]) | G2019S LRRK2 toxicity [7] | IC50 (LRRK2 WT [1]) [nM] | LRRK2 autophosphorylation Average ± SEM (LRRK2 WT [1]) | effect on LRRK2 autophosphorylation (LRRK2 WT [1]) | IC50 (LRRK2 WT [2]; Table 2) [nM] | IC50 (LRRK2 WT [2]; Table 3) [nM] | MBP phosphorylation Average ± SEM (LRRK2 WT [2]) | effect on LRRK2-mediated phosphorylation of MBP (LRRK2 WT [2]) | IC50 (LRRK2 G2019S [3]) [nM] | IC50 (LRRK2 G2019S [4]) [nM] | IC50 (LRRK1 WT [5]) [nM] | IC50 (LRRK1 WT [6]) [nM] | G2019S LRRK2 cell death (TUNEL) [7] | G2019S LRRK2 cell injury (neurite shortening) [7] |
| --- | --- | --- | --- | --- | --- | --- | --- | --- | --- | --- | --- | --- | --- | --- | --- | --- | --- | --- | --- | --- |
| Cc1ccc(NC(=O)c2cccc(N(C)C)c2)cc1NC(=O)c1ccc(O)cc1 [Inhibitor 53, ZM336372] | no effect | no effect | no effect | no effect | minimal to no effect | minimal to no effect | failed to inhibit |  |  |  |  |  |  |  |  |  |  |  |  |  |
| O=C1Nc2ccc(I)cc2/C1=C/c1cc(Br)c(O)c(Br)c1 [Inhibitor 56, GW5074] |  |  |  |  |  |  |  | 880 | 4.6 ± 2.9 % of control | substantially inhibited | 3150 | 1090 | 4.7 ± 4.1 % of control | substantially inhibited | 220 | 880 | 730 | 3250 | attenuated | attenuated |
| O=C1Nc2ccccc2/C1=C1/Nc2ccccc2/C1=N\O [Inhibitor 70, Indirubin-3-monooxine] | inhibited | inhibited | inhibited | inhibited | inhibited | inhibited |  | 1750 | 6.0 ± 6.5 % of control | substantially inhibited | 4830 | 4830 | 33.1 ± 15.7 % of control | substantially inhibited | 380 | 1310 | 790 | 3100 | attenuated | attenuated |

From patent US20150018301A1, “LRRK-2-Mediated Neuronal Toxicity” (THE JOHNS HOPKINS UNIVERSITY, priority 2009, published 2015)
